Columns and labels:
Format in all cases: cell-based
E. coli = E. coli kinetic study (OD600 over 16 hours, first-order kinetics fit)
Protocol: E. coli Kinetic Study. A 96-well plate was filled with 180 μL of E. coli cells that were cultured as mentioned above and treated with 20 μL CADA 1:1 of concentrations ranging from the lethal concentration to one-sixteenth of that concentration to determine how the growth inhibition is affected with changing concentration of the IL. 20 μL of growth media was added to the “untreated” cells such that all wells contained a total volume of 200 μL. The plate was heated to 37° C. with triplicate OD600 measurements taken every 20 minutes over the course of 16 hours with a Biotek Synergy H1 microplate reader.
Bactericidal and Bacteriostatic Activity Kinetics. […] CADA 1:1 was employed instead of CADA 1:2 in this study because of its lowered turbidity in comparison. 180 μL of liquid E. coli culture was added to each well of a 96-well plate and brought up to 200 μL with either IL treatment or growth media alone if untreated. […] However, the cells treated with sublethal concentrations of IL still show what seem to be minor inhibitory interactions with the IL before exiting the lag phase and starting to grow. […] The turbidity of longer chain choline carboxylic acid-based ILs is quite high in aqueous solution and can falsely be determined as growth in OD measurements. Previous studies have shown that the critical micellar concentration (CMC) tends to […] with alkyl chain length and ionic strength, which could potentially affect antimicrobial efficacy. Therefore, IL solutions in sterile water at the same concentrations used to treat the bacteria were utilized as a control and subtracted from the wells with E. coli cells receiving IL treatment.
Integration of Growth Inhibition Following First-Order Kinetics. […] This was achieved by plotting In([A]T/[A]0) vs. time during the growth period to produce a linear representation of the logarithmic growth. Once the integrations were performed and plotted, rate constants were extracted with uncertainty from the slope of the trendlines. For the untreated cells and cells treated with sublethal concentrations, the logarithmic growth was positive, therefore, the rate constant should be positive. […] The rate of inhibition (k=0.0055±0.0002) was almost one-third of the growth rate of the cells that received no treatment, meaning that the inhibition is occurring immediately and for the duration of the study, suppressing the natural growth of the cells by 70%.

E. coli [BL21(DE3)] = assay: Minimal Bactericidal Concentration (MBC) measurements, E. coli
Protocol: (§1) Bacterial Cell Culturing. Expression cells from frozen stock were streaked onto a kanamycin-selected lysogeny broth (LBKan) agar plate using a sterile loop and incubated overnight at 37° C. One colony was then taken from the plate the next day to inoculate 50 mL of sterile LBKan broth and shaken at 37° C. until reaching a growth concentration of 4×10^8 CFU/mL. This protocol was used for bacterial cell culture preparation in all of the experiments described below.
Minimal Bactericidal Concentration (MBC) Measurements. E. coli cells were cultured as described above and aliquoted into sterile tubes. 1%, 10%, and 100% (w/v) solutions of IL in sterile water (correcting for water percentage of the IL) were prepared and sonicated for 15 minutes at 40° C. before addition to the liquid culture. IL solutions were then added to E. coli at varying percentages (v/v), allowing calculation of the actual concentration of IL that was added to the culture. 100 μL of each solution was then spread onto an LBKan agar plate and incubated overnight at 37° C. […] Each IL solution was tested in triplicate.

[1] = test system: Human embryonic kidney (HEK-293) cells
Protocol: Cytotoxicity Studies. Human embryonic kidney (HEK-293) cells were treated in vitro with four of the top candidates (CADA 1:1, CADA 1:2, CA2DE 1:2, and CA3DE 1:2) to determine the concentration at which the IL dosage is toxic to human cells. 1% (w/v) solutions of each IL in sterile water were prepared similarly to the MBC experiments before addition at five different concentrations. The HEK cells were incubated with the IL treatments for 24 hours and then prepared with CellTiter-Glo(R) Luminescent Cell Viability reagent (100 μL per well). Brightfield microscopy images were used to qualitatively depict the concentration at which the cells were no longer viable, while a 96-well plate reader was used to quantitatively determine the percent viability of the cells at each concentration of the ILs. Quantitative measurements were performed in triplicate.
Human Biocompatibility Studies. […]
The viability of the cells was then quantified by preparing the IL-treated cells with 100 μL of CellTiter-Glo(R) Luminescent Cell Viability reagent in each well and measuring the luminescence on the plate reader. […] The results are expressed as percent viability and present as mean±standard deviation of three independent experiments (FIGS. 8A-8D). […]

MRSA [BAA-1708] = assay: Growth inhibition / MBC of Methicillin Resistant Staphylococcus aureus (MRSA); conditions: Table 2; 1:2 mole ratio ILs
Protocol: as §1
Growth Inhibition of Methicillin Resistant Staphylococcus Aureus (MRSA). 10% (w/v) solutions of IL in sterile water were prepared similarly to the E. coli MBC experiments. ILs with anion chain lengths of 8-12 carbons at 1:2 mole ratio of choline to anion were added to MRSA at varying concentrations to determine the lowest concentration in which growth was inhibited. Concentrations were then compared to values obtained for E. coli for each solution.

[2] = Table 1, lowest IL concentration with no growth on LBKan agar plate, triplicate

Compound | suppression of the natural growth of the cells (E. coli; lethal concentration) [%] | rate of inhibition k (E. coli; lethal concentration, first-order fit of OD600) | OD600 course at lethal concentration (E. coli; lethal concentrations, 16 hours) | delay of normal growth after the untreated cells entered the log phase (E. coli; sublethal doses, extended lag phase) | growth rate relative to the rate of the untreated cells (E. coli; sublethal treatment) | growth rate constant k (E. coli; sublethal treatment, first-order fit of OD600) | E. coli MBC (E. coli [BL21(DE3)]; [2]) [µM] | percent viability [1] | MRSA MBC (MRSA [BAA-1708]) [µM] | E. coli MBC / killing efficacy concentration (E. coli [BL21(DE3)]) [µM] | E. coli MBC (E. coli [BL21(DE3)]; Table 2, comparison with MRSA) [µM]
CCCCCCCCCC(=O)[O-].C[N+](C)(C)CCO [CADA 1:1, Choline Decanoate 1:1] | 70 | 0.0055±0.0002 | inhibited immediately with a steady decrease in OD600 | about two | 20-25% | 0.0039±0.0002 | 3480 | over 97% | – | – | –
Choline Decanoate 1:2 [CADA 1:2] | – | – | – | – | – | – | 560 | > 60% | 2230 | 560 | 560
